According to PMC10193966, “Structure of WNT inhibitor adenomatosis polyposis coli down-regulated 1 (APCDD1), a cell-surface lipid-binding protein” (Proceedings of the National Academy of Sciences of the …, 2023):

Biological target: T1, eMBP-APCDD1 (APCDD1 ECD; lipid in ABD2) (Mus musculus, UniProt Q3U128)
T1 construct: extracellular domain residues 47-481, N-terminal engineered MBP fusion, C-terminal 8xHis; secreted from HEK293T (kifunensine); Endo-F1 and carboxypeptidase A/B treated in situ; single-span membrane protein without TM
T1 sequence (Q3U128 47-481): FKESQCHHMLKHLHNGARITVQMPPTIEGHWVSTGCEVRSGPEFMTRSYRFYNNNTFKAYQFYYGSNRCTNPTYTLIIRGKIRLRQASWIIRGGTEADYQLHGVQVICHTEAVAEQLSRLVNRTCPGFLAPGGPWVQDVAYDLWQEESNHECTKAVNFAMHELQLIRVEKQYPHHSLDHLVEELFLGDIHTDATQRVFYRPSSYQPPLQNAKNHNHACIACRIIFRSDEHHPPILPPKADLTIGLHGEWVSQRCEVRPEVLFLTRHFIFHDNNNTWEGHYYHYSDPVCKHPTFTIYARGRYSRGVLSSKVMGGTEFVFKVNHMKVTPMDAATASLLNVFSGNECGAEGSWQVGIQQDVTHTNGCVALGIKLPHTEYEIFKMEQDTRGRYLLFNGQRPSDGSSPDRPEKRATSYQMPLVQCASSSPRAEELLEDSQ
Experiment: X-ray crystal structure ([…] Å); HPLC/MS of extract from purified APCDD1
Type: binding
Conditions: co-purified lipid from HEK293 expression with 2% serum; ABD2 hydrophobic pocket, chains A and C; MS sample named only purified APCDD1

CCCCCCCCCCCCCCCCCC(=O)O [stearic acid]
X-ray crystal structure (2.3 Å); HPLC/MS of extract from purified APCDD1: This analysis revealed stearic acid, a C18 fatty acid
